# In patent US6521670B1, “Insect control method and composition” (BioAdvantage, Inc., priority 2000, dated 2003):
# System: flies, bees, wasps, and other winged insects
# Experiment: vaporized 1,4-DMN treatment of a closed potato storage facility
# Format: in vivo
# Experimental: The concentration of vapor of 1,4-DMN in the atmosphere of the storage facility was rather low. […] In the experiment, 500 milliliters and 188 milliliters of 1,4-DMN were vaporized and used. Both concentrations were effective. The facility was in a closed state for about 48 hours.
# The ventilation system of the storage facility had been shut off so that there was no fresh air entering the building and the building was not being evacuated during the 1,4-DMN vapor treatment. The effect of the 1,4-DMN on insects within the storage facility was fairly immediate with substantially all the insects being killed within about 24 hours. In regions or facilities with dangerous insects, or where there is a large concentration of less-dangerous insects, such as bees, wasps and the like, which would create risks to workers, a closed facility may be treated to make it safe. Dangerous insects such as spiders, scorpions and the like may also effectively be treated in this manner with 1,4-DMN.
smiles,measurement,setting,value
"Cc1ccc(C)c2ccccc12 [1,4-DMN, 1,4-dimethylnaphthalene]",time until substantially all the insects were killed,"1,4-DMN vapor treatment, closed storage facility without ventilation",≤ 24 h
same,insecticidal effectiveness of vapor treatment,"188 milliliters of 1,4-DMN vaporized, head space about 9,000 cubic feet, closed about 48 hours",effective
same,insecticidal effectiveness of vapor treatment,"500 milliliters of 1,4-DMN vaporized, head space about 9,000 cubic feet, closed about 48 hours",effective
same,"effect of vaporized 1,4-DMN on insects contained within a potato storage facility","vapor, closed facility of approximately 10,000 cubic feet, head space about 9,000 cubic feet, closed about 48 hours, ventilation shut off",killed or placed in a state of stupor
